Experimental data from ChEMBL document CHEMBL1201862, “PubChem BioAssay data set” (2004).
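Method: 48-hour compound exposure of cells in 96-well plates, five concentrations, linear interpolation of endpoints. GI50: concentration for 50% inhibition of growth.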 Calls of active or inactive are those of the source. Cut-off read from the data, not from the text of the source: active = GI50 up to about 1.1 µM and inactive = higher.

Columns and labels:
Test in all cases: NCI tumour cell line growth inhibition, 48 h
786-0 = system: 786-0
A498 = system: A498
A549 = system: A549
ACHN = system: ACHN
BT-549 = system: BT-549
CAKI-1 = system: CAKI-1
CCRF-CEM = system: CCRF-CEM
COLO 205 = system: COLO 205
DU-145 = system: DU-145
EKVX = system: EKVX
HCC 2998 = system: HCC 2998
HCT-116 = system: HCT-116
HCT-15 = system: HCT-15
HOP-62 = system: HOP-62
HOP-92 = system: HOP-92
HT-29 = system: HT-29
Hs-578T = system: Hs-578T
IGROV-1 = system: IGROV-1
K562 = system: K562
KM12 = system: KM12
M14 = system: M14
MCF7 = system: MCF7
MDA-MB-231 = system: MDA-MB-231
MDA-MB-435 = system: MDA-MB-435
MDA-N = system: MDA-N
MOLT-4 = system: MOLT-4
Malme-3M = system: Malme-3M
NCI-H23 = system: NCI-H23
NCI-H460 = system: NCI-H460
NCI-H522 = system: NCI-H522
NCI/ADR-RES = system: NCI/ADR-RES
OVCAR-3 = system: OVCAR-3
OVCAR-4 = system: OVCAR-4
OVCAR-5 = system: OVCAR-5
OVCAR-8 = system: OVCAR-8
PC-3 = system: PC-3
RPMI-8226 = system: RPMI-8226
RXF 393 = system: RXF 393
SF-295 = system: SF-295
SK-MEL-28 = system: SK-MEL-28
SK-MEL-2 = system: SK-MEL-2
SK-MEL-5 = system: SK-MEL-5
SK-OV-3 = system: SK-OV-3
SNB-19 = system: SNB-19
SR = system: SR
SW-620 = system: SW-620
U-251 = system: U-251
UACC-257 = system: UACC-257
UACC-62 = system: UACC-62
UO-31 = system: UO-31

C/C=C\C(CC(=O)NCCC1CN(S(=O)(=O)C(F)(F)F)c2ccccc21)CC(=O)OC (stereo not given)
GI50 (786-0): 34.2 µM (inactive) | GI50 (A498): 62.8 µM (inactive) | GI50 (A549): 45.8 µM (inactive) | GI50 (ACHN): 37.6 µM (inactive) | GI50 (BT-549): 27.4 µM (inactive) | GI50 (CAKI-1): 56.6 µM (inactive) | GI50 (CCRF-CEM): 26.6 µM (inactive) | GI50 (COLO 205): 24.8 µM (inactive) | GI50 (DU-145): > 100 µM (inactive) | GI50 (EKVX): 37.4 µM (inactive) | GI50 (HCC 2998): 53.3 µM (inactive) | GI50 (HCT-116): 31.3 µM (inactive) | GI50 (HCT-15): 42.8 µM | GI50 (HOP-62): 35.2 µM (inactive) | GI50 (HOP-92): 23.9 µM (inactive) | GI50 (HT-29): 21.8 µM (inactive) | GI50 (Hs-578T): 22.6 µM (inactive) | GI50 (IGROV-1): 50 µM (inactive) | GI50 (K562): 51.8 µM (inactive) | GI50 (KM12): 26.9 µM (inactive) | GI50 (M14): 36.5 µM (inactive) | GI50 (MCF7): 49.9 µM (inactive) | GI50 (MDA-MB-231): 50.8 µM (inactive) | GI50 (MDA-MB-435): > 10 µM (inactive) | GI50 (MDA-N): 40 µM (inactive) | GI50 (MOLT-4): 29.6 µM (inactive) | GI50 (Malme-3M): 15.9 µM (inactive) | GI50 (NCI-H23): 34.7 µM (inactive) | GI50 (NCI-H460): 35.6 µM (inactive) | GI50 (NCI-H522): 18.3 µM (inactive) | GI50 (NCI/ADR-RES): 29.6 µM (inactive) | GI50 (OVCAR-3): 38.3 µM (inactive) | GI50 (OVCAR-4): 63.5 µM (inactive) | GI50 (OVCAR-5): 58.6 µM (inactive) | GI50 (OVCAR-8): 38.8 µM (inactive) | GI50 (PC-3): 35.4 µM (inactive) | GI50 (RPMI-8226): 31.8 µM (inactive) | GI50 (RXF 393): 36.3 µM (inactive) | GI50 (SF-295): 42.4 µM (inactive) | GI50 (SK-MEL-28): 43.3 µM (inactive) | GI50 (SK-MEL-2): 32.1 µM (inactive) | GI50 (SK-MEL-5): 16.9 µM (inactive) | GI50 (SK-OV-3): 64.3 µM (inactive) | GI50 (SNB-19): 44.7 µM (inactive) | GI50 (SR): > 100 µM (inactive) | GI50 (SW-620): 55.8 µM (inactive) | GI50 (U-251): 59.3 µM (inactive) | GI50 (UACC-257): 48.2 µM (inactive) | GI50 (UACC-62): 34.1 µM (inactive) | GI50 (UO-31): 35.3 µM (inactive)
